Measured values as given in patent US4337265A, “Cyclohepta[b]pyrrole derivatives” (Ayerst, McKenna & Harrison Inc., priority 1981, dated 1982).

Experiments:
aldose reductase [1] = settings: literature report; cited from earlier work
aldose reductase [2] = target: T1, aldose reductase (Bos taurus, UniProt P16116); test: in vitro aldose reductase inhibition (modified Hayman and Kinoshita procedure; enzyme from bovine lens); type: biochemical; settings: read-out: % Inhibition At Different Molar Concentrations (in vitro); for inhibition at 10 µM: molar concentration 10^-5; for inhibition at 1 µM: molar concentration 10^-6; for inhibition at 0.1 µM: molar concentration 10^-7
T1 construct: preparation of the enzyme from bovine lens; from tissue; host or cells: bovine lens
Procedure: In the present case the procedure of Hayman and Kinoshita is modified in that the final chromatography step is omitted in the preparation of the enzyme from bovine lens. The following results were obtained when the foregoing listed compounds of formula I were evaluated in the above in vitro test.

[3] = hygroscopicity of the salt; type: physicochemical; settings: disodium salt

Row | SMILES | aldose reductase inhibition (in words) (aldose reductase [1]) | inhibition at 10 µM (aldose reductase [2]) [%] | inhibition at 1 µM (aldose reductase [2]) [%] | inhibition at 0.1 µM (aldose reductase [2]) [%] | hygroscopicity [3]
1 | O=C(O)CN1C(=O)c2cccc3cccc(c23)C1=O [1,3-Dioxo-1H-benz[de]isoquinoline-2(3H)-acetic acid] | effective inhibitor of aldose reductase | – | – | – | –
2 | O=C(O)C[n+]1cc(C(=O)O)c2cccccc1-2 [3-Carboxy-1-(carboxymethyl)-cyclohepta[b]pyrrolium Chloride] | – | 80 | 37 | 13 | –
3 | O=C(O)Cn1c2cccccc-2c(C(=O)O)c1=O [Example 2, 3-Carboxy-1,2-dihydro-2-oxocyclohepta[b]pyrrole-1-acetic Acid] | – | 88 | 82 | 44 | –
4 | O=C(O)Cn1c2cccccc-2cc1=O [Example 3, 1,2-Dihydro-2-oxocyclohepta[b]pyrrole-1-acetic Acid] | – | 80 | 45 | 9 | –
5 | CCOC(=O)c1c2cccccc-2n(CC(=O)O)c1=O [Example 4, 3-(Ethoxycarbonyl)-1,2-dihydro-2-oxocyclohepta[b]pyrrole-1-acetic Acid] | – | 73 | 26 | – | –
6 | O=C(O)Cn1c2cccccc-2c(C(=O)O)c1=S [Example 5, 3-Carboxy-1,2-dihydro-2-thioxocyclohepta[b]pyrrole-1-acetic Acid] | – | 93 | 85 | 47 | –
7 | CC(C)(C)C(=O)OCOC(=O)Cn1c2cccccc-2c(C(=O)OCOC(=O)C(C)(C)C)c1=O [Example 6, 1,2-Dihydro-3-[(2,2-dimethyl-1-oxopropoxy)methoxycarbonyl]-2-oxo-cyclohepta[b]pyrrole-1-acetic Acid (2,2-Dimethyl-1-oxopropoxy)methyl Ester] | – | 75 | 44 | 9 | –
8 | CC(=O)c1c2cccccc-2n(CC(=O)O)c1=O [Example 7, 3-Acetyl-1,2-dihydro-2-oxocyclohepta[b]pyrrole-1-acetic Acid] | – | 76 | 26 | 3 | –
9 | CCc1c2cccccc-2n(CC(=O)O)c1=O [Example 8, 3-Ethyl-1,2-dihydro-2-oxocyclohepta[b]pyrrole-1-acetic Acid] | – | 60 | 19 | – | –
10 | O=C(O)Cn1c2ccc(Cl)ccc-2c(C(=O)O)c1=O [Example 9, 3-Carboxy-6-chloro-1,2-dihydro-2-oxocyclohepta[b]pyrrole-1-acetic Acid] | – | 85 | 78 | 36 | –
11 | CCOC(=O)c1c2ccc(Cl)ccc-2n(CC(=O)O)c1=O [Example 10, 6-Chloro-3-(ethoxycarbonyl)-1,2-dihydro-2-oxocyclohepta[b]pyrrole-1-acetic Acid] | – | 76 | 34 | 9 | –
12 | CC(=O)c1c2ccc(Cl)ccc-2n(CC(=O)O)c1=O [Example 11, 3-Acetyl-6-chloro-1,2-dihydro-2-oxocyclohepta[b]pyrrole-1-acetic Acid] | – | 85 | 52 | 11 | –
13 | N#Cc1c2cccccc-2n(CC(=O)O)c1=O [Example 12, 3-Cyano-1,2-dihydro-2-oxocyclohepta[b]pyrrole-1-acetic Acid] | – | 88 | 82 | 48 | –
14 | NC(=O)c1c2cccccc-2n(CC(=O)O)c1=O [Example 13, 3-(Aminocarbonyl)-1,2-dihydro-2-oxocyclohepta[b]pyrrole-1-acetic Acid] | – | 73 | 28 | 7 | –
15 | CN(CC(=O)O)C(=O)c1c2ccc(Cl)ccc-2n(CC(=O)O)c1=O [Example 15, 6-Chloro-3-[(N-carboxymethyl-N-methyl)amino]carbonyl-1,2-dihydro-2-oxocyclohepta[b]pyrrole-1-acetic Acid] | – | – | – | – | hydroscopic
16 | O=C1NC(=O)[C@@]2(CCOc3ccc(F)cc32)N1 [sorbinil, (S)-6-Fluoro-2,3-dihydrospiro(4H-1-benzopyran-4,4'-imidazolidine)-2',5'-dione] | aldose reductase inhibiting properties | – | – | – | –
